Measured values: US20260234112A1, “COMPOUNDS, COMPOSITIONS, AND METHODS OF USE THEREOF” (Type6 Therapeutics, Inc., priority 2023, published 2026)

target: T1, Cdk2(2-298) (Homo sapiens, UniProt P24941); assay: Surface Plasmon Resonance (SPR) compound interaction, Biacore 8K; assay type: binding; details: single-cycle kinetics (SCK, "S"), dissociation 1800 sec, read-out: Activity rating (KD)
T1 construct: Biotinylated N-terminal avi-tagged Cdk2(2-298) or Cdk1(1-297) was immobilized
Method in brief: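 Biotinylated N-terminal avi-tagged Cdk2(2-298) captured on streptavidin chip at 2500–3000 RU in 25 mM HEPES, 150 mM NaCl, 0.05% Tween20, pH 7.5, 1% DMSO final. Eight 3-fold compound concentrations injected 120 sec at 30 μl/min, multi- or single-cycle kinetics; dissociation 180 sec (MCK) or 1800 sec (SCK).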

Kd [nM]	SMILES
100 to 1000	COCCNCCNc1nccc(-c2cnccc2Oc2ccc(NS(=O)(=O)c3ccccc3Cl)cc2F)n1 [Compound 104]
11 to 100	COCCN1CC(Nc2nccc(-c3cnccc3Oc3ccc(NS(=O)(=O)c4ccccc4Cl)cc3F)n2)C1 [Compound 105]
100 to 1000	O=S(=O)(Nc1ccc(Oc2ccncc2-c2ccnc(NC3CN(CCO)C3)n2)c(F)c1)c1ccccc1Cl [Compound 106]
100 to 1000	COCCOCCN1CC(Nc2nccc(-c3cnccc3Oc3ccc(NS(=O)(=O)c4ccccc4Cl)cc3F)n2)C1 [Compound 107]
≤ 10	N[C@H]1CC[C@H](Nc2nccc(-c3cccnc3Sc3ccc(NS(=O)(=O)c4ccccc4Cl)cc3F)n2)CC1 [Compound 108, N-(4-((3-(2-(((1r,4r)-4-Aminocyclohexyl)amino)pyrimidin-4-yl)pyridin-2-yl)thio)-3-fluorophenyl) 2-chlorobenzenesulfonamide]
≤ 10	O=S(=O)(Nc1ccc(Sc2ncccc2-c2ccnc(N[C@H]3CCCNC3)n2)c(F)c1)c1ccccc1Cl [Compound 109, N-[3-Fluoro-4-[[3-[2-[[(3S)-3-piperidyl]amino]pyrimidin-4-yl]-2-pyridyl]thio]phenyl] 2-chlorobenzenesulfonamide]
11 to 100	N[C@H]1CC[C@H](Nc2nccc(-c3cccnc3Sc3ccc(NS(=O)(=O)c4ccccc4)cc3F)n2)CC1 [Compound 110, N-(4-((3-(2-(((1r,4r)-4-Aminocyclohexyl)amino)pyrimidin-4-yl)pyridin-2-yl)thio)-3-fluorophenyl) benzenesulfonamide]
11 to 100	N[C@H]1CC[C@H](Nc2nccc(-c3cccnc3Sc3ccc(NS(=O)(=O)c4cccc5ccccc45)cc3F)n2)CC1 [Compound 111, N-(4-((3-(2-(((1r,4r)-4-Aminocyclohexyl)amino)pyrimidin-4-yl)pyridin-2-yl)thio)-3-fluorophenyl) naphthalene-1-sulfonamide]
100 to 1000	O=S(=O)(Nc1ccc(Sc2ncccc2-c2ccnc(N[C@H]3CCCNC3)n2)c(F)c1)c1cccc2ccccc12 [Compound 113, N-[3-fluoro-4-[[3-[2-[[(3S)-3-piperidyl]amino]pyrimidin-4-yl]-2-pyridyl]sulfanyl]phenyl] naphthalene-1-sulfonamide]
≤ 10	N[C@H]1CC[C@H](Nc2nccc(-c3cnccc3Sc3ccc(NS(=O)(=O)c4ccccc4Cl)cc3F)n2)CC1 [Compound 116, N-[4-[[3-[2-[((1r,4r)4 aminocyclohexyl)amino]pyrimidin-4-yl]-4-pyridyl]thio]-3-fluoro-phenyl] 2-chlorobenzenesulfonamide]
11 to 100	N[C@H]1CC[C@H](Nc2nccc(-c3cnccc3Sc3ccc(NS(=O)(=O)c4ccccc4)cc3F)n2)CC1 [Compound 117, N-[4-(1r,4r)[[3-[2-[(4-aminocyclohexyl)amino]pyrimidin-4-yl]-4-pyridyl]sulfanyl]-3-fluorophenyl] benzenesulfonamide]
100 to 1000	N[C@H]1CC[C@H](Nc2nccc(-c3cnccc3Sc3ccc(NS(=O)(=O)c4cccc5ccccc45)cc3F)n2)CC1 [Compound 118, N-[4-(1r,4r)[[3-[2-[(4-Aminocyclohexyl)amino]pyrimidin-4-yl]-4-pyridyl]sulfanyl]-3-fluorophenyl]naphthalene-1-sulfonamide]
11 to 100	O=S(=O)(Nc1ccc(Oc2ncncc2-c2ccnc(N[C@H]3CCCNC3)n2)c(F)c1)c1ccccc1Cl [Compound 127, N-[3-fluoro-4-[5-[2-[[(3S)-3-piperidyl]amino]pyrimidin-4-yl]pyrimidin-4-yl]oxyphenyl] 2-chlorobenzenesulfonamide]
≤ 10	N[C@H]1CC[C@H](Nc2nccc(-c3cncnc3Oc3ccc(NS(=O)(=O)c4ccccc4Cl)cc3F)n2)CC1 [Compound 128, N-[4-[5-[2-[(1r,4r)(4-aminocyclohexyl)amino]pyrimidin-4-yl]pyrimidin-4-yl]oxy-3-fluorophenyl] 2-chlorobenzenesulfonamide]
100 to 1000	O=S(=O)(Nc1ccc(Oc2ncncc2-c2ccnc(N[C@H]3CCCNC3)n2)c(F)c1)c1ccccc1 [Compound 129, N-[3-fluoro-4-[5-[2-[[(3S)-3-piperidyl]amino]pyrimidin-4-yl]pyrimidin-4-yl]oxy-phenyl] benzenesulfonamide]
1000 to 5000	N[C@H]1CC[C@H](Nc2nccc(-c3cncnc3Oc3ccc(NS(=O)(=O)c4ccccc4)cc3F)n2)CC1 [Compound 130, N-[4-[5-[2-[(1r,4r)(4-aminocyclohexyl)amino]pyrimidin-4-yl]pyrimidin-4-yl]oxy-3-fluoro-phenyl] benzenesulfonamide]
11 to 100	N[C@H]1CC[C@H](Nc2nccc(-c3ccncc3Oc3ccc(NS(=O)(=O)c4ccccc4Cl)cc3F)n2)CC1 [Compound 131, N-[4-(1r,4r)[[4-[2-[(4-aminocyclohexyl)amino]pyrimidin-4-yl]-3-pyridyl]oxy]-3-fluorophenyl] 2-chlorobenzenesulfonamide]
100 to 1000	N[C@H]1CC[C@H](Nc2nccc(-c3ncccc3Oc3ccc(NS(=O)(=O)c4ccccc4Cl)cc3F)n2)CC1 [Compound 132, N-[4-[[2-[2-(1r,4r)[(4-Aminocyclohexyl)amino]pyrimidin-4-yl]-3-pyridyl]oxy]-3-fluoro-phenyl] 2-chlorobenzenesulfonamide]

The remaining lines, values behind:

SMILES	Kd [nM]
CN(C)CCNc1nccc(-c2cnccc2Oc2ccc(NS(=O)(=O)c3ccccc3Cl)cc2F)n1 [Compound 85]	100 to 1000
O=S(=O)(Nc1ccc(Oc2ccncc2-c2ccnc(NCCN3CCOCC3)n2)c(F)c1)c1ccccc1Cl [Compound 86]	100 to 1000
O=S(=O)(Nc1ccc(Oc2ccncc2-c2ccnc(NCCOCCO)n2)c(F)c1)c1ccccc1Cl [Compound 87]	100 to 1000
O=S(=O)(Nc1ccc(Oc2ccncc2-c2ccnc(NC3COC3)n2)c(F)c1)c1ccccc1Cl [Compound 88]	≤ 10
O=S(=O)(Nc1ccc(Oc2ccncc2-c2ccnc(NC3COC3)n2)c(F)c1)c1ccccc1Cl [Compound 89]	11 to 100
O=S(=O)(Nc1ccc(Oc2ccncc2-c2ccnc(NCCN3CCCC3)n2)c(F)c1)c1ccccc1Cl [Compound 90]	100 to 1000
COCCOCCNc1nccc(-c2cnccc2Oc2ccc(NS(=O)(=O)c3ccccc3Cl)cc2F)n1 [Compound 91]	100 to 1000
O=S(=O)(Nc1ccc(Oc2ccncc2-c2ccnc(NC3CC4(CNC4)C3)n2)c(F)c1)c1ccccc1Cl [Compound 92]	≤ 10
CN1CC[C@H](Nc2nccc(-c3cnccc3Oc3ccc(NS(=O)(=O)c4ccccc4Cl)cc3F)n2)C1 [Compound 93]	100 to 1000
O=S(=O)(Nc1ccc(Oc2ccncc2-c2ccnc(NCCN3CCC3)n2)c(F)c1)c1ccccc1Cl [Compound 94]	100 to 1000
O=S(=O)(Nc1ccc(Oc2ccncc2-c2ccnc(NCCn3ccnc3)n2)c(F)c1)c1ccccc1Cl [Compound 95]	11 to 100
O=S(=O)(Nc1ccc(Oc2ccncc2-c2ccnc(NCCc3ncc[nH]3)n2)c(F)c1)c1ccccc1Cl [Compound 96]	100 to 1000
O=S(=O)(Nc1ccc(Oc2ccncc2-c2ccnc(NCCNCCO)n2)c(F)c1)c1ccccc1Cl [Compound 97]	100 to 1000
O=S(=O)(Nc1ccc(Oc2ccncc2-c2ccnc(NC3CNC3)n2)c(F)c1)c1ccccc1Cl [Compound 98]	11 to 100
CN1CC2(CC(Nc3nccc(-c4cnccc4Oc4ccc(NS(=O)(=O)c5ccccc5Cl)cc4F)n3)C2)C1 [Compound 99]	100 to 1000
CN(CCNc1nccc(-c2cnccc2Oc2ccc(NS(=O)(=O)c3ccccc3Cl)cc2F)n1)S(C)(=O)=O [Compound 100]	≤ 10
O=S(=O)(Nc1ccc(Oc2ccncc2-c2ccnc(NC3CN(C4COC4)C3)n2)c(F)c1)c1ccccc1Cl [Compound 101]	11 to 100
CN1CC(Nc2nccc(-c3cnccc3Oc3ccc(NS(=O)(=O)c4ccccc4Cl)cc3F)n2)C1 [Compound 102]	11 to 100
CS(=O)(=O)N1CCC[C@H](Nc2nccc(-c3cnccc3Oc3ccc(NS(=O)(=O)c4ccccc4Cl)cc3F)n2)C1 [Compound 103]	100 to 1000
